Read-outs that look alike come from different tables or passages of the source.
Legend:
[1] = target: PIM1 (Homo sapiens, UniProt P11309); test: Radiometric (P81 filter isotopic) kinase assay, PIM1; format: biochemical; details: for remaining activity at 5 µM: 5 µM compound; for remaining activity at 5 µM / remaining activity at 10 µM: read-out: Residual Activity of the Enzyme PIM1; for remaining activity at 10 µM: 10 µM compound; for Ki: calculated from IC50 by Cheng and Prusoff equation
[2] = target: human CK2 catalytic subunit (CK2α) (Homo sapiens, UniProt P68400); test: Radiometric (P81 filter isotopic) kinase assay, CK2 catalytic subunit; format: biochemical; details: for remaining activity at 5 µM: 5 µM compound; for remaining activity at 5 µM / remaining activity at 10 µM: read-out: Residual Activity of the Enzyme CK2α; for remaining activity at 10 µM: 10 µM compound
[3] = test system: MCF-7 cells; test: Cell cycle progression by flow cytometry, MCF-7; format: cell-based, human; details: MCF-7, 72 h, compound at its EC50
[4] = target: CK2 holoenzyme (CK2 α2β2) (Homo sapiens, UniProt P68400); test: Radiometric (P81 filter isotopic) kinase assay, CK2 holoenzyme; format: biochemical; details: for remaining activity at 5 µM: 5 µM compound; for remaining activity at 5 µM / remaining activity at 10 µM: read-out: Residual Activity of the Enzyme CK2 α2β2; for remaining activity at 10 µM: 10 µM compound; for Ki: calculated from IC50 by Cheng and Prusoff equation
[5] = test system: MDA-MB-231 cells; test: MTT viability assay, MDA-MB-231; format: cell-based; details: Homo sapiens
Experimental: (§1) To test the anti-cancer effect of the TBBi derivatives, we treated the MCF-7 and MDA-MB-231 cells with the newly synthesized esters and previously reported compounds [34, 57] at the concentration range of 3.125 to 200 µM for 24 h, 48 h and 72 h. Additionally, the range of concentrations was extended by additional lower concentrations in MCF-7 for compound 4 with the minimum concentration of 0.195 µM. […] The EC50 values, describing the half maximal effective concentration of each tested compound, were calculated and are summarized in Table 2. […] We observed that the EC50 values increase in both cell lines with the elongation of fatty acids chain length in the tested compounds, thus strongly correlating with the decrease of their solubility in biological media as characterized by logS parameter (Table 2). The second reason for the decreased biological activity of the longer-chain aliphatic esters might be attributed to their greater resistance toward intracellular hydrolysis, which directly influences the slower release of the active form of the corresponding CK2 inhibitors. […] However, none of the tested compounds, except for compound 5, decreased the viability of both cell lines in a time-dependent manner (Figure 4).
(§2) MCF-7 and MDA-MB-231 were cultured in high-glucose Dulbecco’s modified Eagle medium (DMEM, Lonza, Basel, Switzerland) supplemented with 10% fetal bovine serum (FBS, EuroClone, Siziano, Italy)), 2 mM L-glutamine, and antibiotics (100 U/mL penicillin, 100 µg/mL streptomycin) (Sigma-Aldrich Chemical Company (St. Louis, MO, USA). Cells were grown in 75-cm^2 cell culture flasks (Sarstedt, Nümbrecht, Germany) in a humidified atmosphere of CO2/air (5%/95%) at 37 °C. All the experiments were performed in exponentially growing cultures. Stock solutions of the test compounds were prepared in DMSO and stored in −80 °C for a maximum of one month. For the cytotoxicity studies, stock solutions of the tested compounds were diluted 200-fold with the proper culture medium to obtain the final concentrations.
(§3) After incubation with the tested compounds, an MTT test was performed as described previously. Optical densities were measured at 570 nm using BioTek microplate reader (Winooski, VT, USA). All measurements were carried out in a minimum of three biological replicates.

[6] = test system: MCF-7 cells; test: MTT viability assay, MCF-7; format: cell-based; details: Homo sapiens
Experimental: as §1, §2, §3

[7] = 24 h, read-out: EC50 ± SD MDA-MB-231
[8] = 48 h, read-out: EC50 ± SD MDA-MB-231
[9] = 72 h, read-out: EC50 ± SD MDA-MB-231
[10] = MCF7, 24 h, read-out: EC50 ± SD MCF-7
[11] = MCF7, 48 h, read-out: EC50 ± SD MCF-7
[12] = MCF7, 72 h, read-out: EC50 ± SD MCF-7
[13] = 24 h, 48 h and 72 h, read-out: EC50 MDA-MB-231
[14] = MCF7, 24 h, 48 h and 72 h, read-out: EC50 MCF-7

PIM1, sequence (P11309 whole entry, species assumed): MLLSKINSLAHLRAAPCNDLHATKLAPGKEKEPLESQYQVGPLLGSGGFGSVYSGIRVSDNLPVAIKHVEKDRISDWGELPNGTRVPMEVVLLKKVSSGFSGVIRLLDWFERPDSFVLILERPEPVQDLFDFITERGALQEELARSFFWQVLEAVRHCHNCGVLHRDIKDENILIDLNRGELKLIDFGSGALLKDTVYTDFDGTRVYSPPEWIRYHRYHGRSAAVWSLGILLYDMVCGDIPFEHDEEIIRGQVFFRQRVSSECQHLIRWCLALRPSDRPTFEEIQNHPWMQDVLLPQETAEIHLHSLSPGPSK
CK2 holoenzyme (CK2 α2β2), sequence (P68400 whole entry): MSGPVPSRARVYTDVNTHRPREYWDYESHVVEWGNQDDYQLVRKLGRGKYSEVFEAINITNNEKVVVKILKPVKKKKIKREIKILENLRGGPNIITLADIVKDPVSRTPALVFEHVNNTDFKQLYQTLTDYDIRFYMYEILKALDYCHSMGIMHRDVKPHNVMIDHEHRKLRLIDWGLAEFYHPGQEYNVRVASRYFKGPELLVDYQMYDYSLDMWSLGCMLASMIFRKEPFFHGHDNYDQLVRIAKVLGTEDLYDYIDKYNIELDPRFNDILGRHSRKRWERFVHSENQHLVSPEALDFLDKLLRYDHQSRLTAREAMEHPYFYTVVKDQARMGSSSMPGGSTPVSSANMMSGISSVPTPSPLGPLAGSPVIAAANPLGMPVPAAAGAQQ
CK2 holoenzyme (CK2 α2β2), sequence (P67870 whole entry partner): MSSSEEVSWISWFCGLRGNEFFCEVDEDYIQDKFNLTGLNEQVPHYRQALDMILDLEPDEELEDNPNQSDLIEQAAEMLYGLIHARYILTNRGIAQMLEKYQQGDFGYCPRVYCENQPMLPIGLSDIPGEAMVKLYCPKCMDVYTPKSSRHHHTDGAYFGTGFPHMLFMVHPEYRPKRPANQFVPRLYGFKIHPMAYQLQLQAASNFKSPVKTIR
human CK2 catalytic subunit (CK2α), sequence (P68400 whole entry): as the sequence (P68400 whole entry) above

| SMILES | remaining activity at 5 µM [1] [%] | remaining activity at 5 µM [2] [%] | remaining activity at 10 µM [2] [%] | remaining activity at 5 µM [4] [%] | remaining activity at 10 µM [4] [%] | EC50 [5, 7] [µM] | EC50 [5, 8] [µM] | EC50 [5, 9] [µM] | remaining activity at 10 µM [1] [%] | Ki [1] [µM] | EC50 [6, 10] [µM] | EC50 [6, 11] [µM] | EC50 [6, 12] [µM] | melting point [°C] | cells in G1 [3] [%] | cells in G2M [3] [%] | cells in S [3] [%] | other results |
| --- | --- | --- | --- | --- | --- | --- | --- | --- | --- | --- | --- | --- | --- | --- | --- | --- | --- | --- |
| OCCCn1cnc2c(Br)c(Br)c(Br)c(Br)c21 [Compound 2] | 17.2 ± 2.3 |  |  |  |  | 54.6 ± 4.32 | 27.2 ± 0.49 | 20.6 ± 0.86 | 10.1 ± 1 | 0.42 ± 0.02 | 24.1 ± 1.39 | 20.1 ± 1.36 | 19.6 ± 1.68 |  | 51.0 | 14.4 | 34.6 |  |
| Cc1nc2c(Br)c(Br)c(Br)c(Br)c2[nH]1 [Compound 4, 4,5,6,7-tetrabromo-2-methyl-1H-benzimidazole, reference compound] | 8 ± 0.9 | 18.8 ± 1.1 | 7.7 ± 3.3 | 6 ± 0.9 | 2.9 ± 0.2 | 12.8 ± 6.6 | 5.35 ± 0.82 | 4.73 ± 0.48 | 4.5 ± 0.2 | 0.21 ± 0.02 | 4.12 ± 0.03 | 4.2 ± 0.29 | 2.66 ± 0.19 |  | 53.6 | 16.7 | 29.7 | Ki [4]: 0.11 ± 0.04 µM |
| Cc1nc2c(Br)c(Br)c(Br)c(Br)c2n1CCCO [Compound 5] | 9.3 ± 2.6 | 26.1 ± 3.5 | 16.3 ± 1 | 14.2 ± 2 | 9.1 ± 0.6 | 57.8 ± 20.8 | 21 ± 9.85 | 9.99 ± 0.44 | 3.4 ± 0.3 | 0.15 ± 0.08 | 17.6 ± 6.35 | 16 ± 5.31 | 4.9 ± 2.71 | 227 to 230 | 60.2 | 13.5 | 26.3 | Ki ([2]; calculated from IC50 by Cheng and Prusoff equation): 0.2 ± 0.08 µM; Ki [4]: 0.05 ± 0.01 µM |

The next lines start with results.

| remaining activity at 5 µM [1] [%] | remaining activity at 5 µM [2] [%] | remaining activity at 10 µM [2] [%] | remaining activity at 5 µM [4] [%] | remaining activity at 10 µM [4] [%] | EC50 [5, 7] [µM] | EC50 [5, 8] [µM] | EC50 [5, 9] [µM] | remaining activity at 10 µM [1] [%] | Ki [1] [µM] | EC50 [6, 10] [µM] | EC50 [6, 11] [µM] | EC50 [6, 12] [µM] | melting point [°C] | SMILES | cells in G1 [3] [%] | cells in G2M [3] [%] | cells in S [3] [%] | other results |
| --- | --- | --- | --- | --- | --- | --- | --- | --- | --- | --- | --- | --- | --- | --- | --- | --- | --- | --- |
| 2.3 ± 0.1 | 0 | 0 | 0 | 0 |  |  |  |  |  |  |  |  |  | O=C(O)c1ccc2c(c1)nc(Nc1cccc(Cl)c1)c1ccncc12 [CX-4945, silmitasertib, reference compound] | 33.6 | 22.0 | 44.4 |  |
| 65 ± 2.8 | 71 ± 9.5 | 59.1 ± 3.7 | 58 ± 4 | 34.8 ± 3.4 | 40.8 ± 1.58 | 27.8 ± 1.31 | 24.5 ± 0.48 | 24.4 ± 0.9 | 2.23 ± 0.07 | 29.3 ± 1.24 | 23.1 ± 0.77 | 21.5 ± 1.86 | 96 to 97 | CCCC(=O)OCCCn1cnc2c(Br)c(Br)c(Br)c(Br)c21 [Compound 3a, (4,5,6,7-Tetrabromo-1H-benzimidazol-1-yl)propyl butanoate] | 57.8 | 13.8 | 28.4 |  |
| 85 ± 0.1 | 89.3 ± 8 | 83 ± 13 | 85.5 ± 8.3 | 83.1 ± 7.5 | 95.6 ± 20.4 | 32.2 ± 3.26 | 27.3 ± 1.26 | 74.2 ± 11.2 |  | 39.6 ± 1.06 | 28.4 ± 1.71 | 24.8 ± 1.33 | 65 to 67 | CCCCCC(=O)OCCCn1cnc2c(Br)c(Br)c(Br)c(Br)c21 [Compound 3b, 3-(4,5,6,7-Tetrabromo-1H-benzimidazol-1-yl)propyl hexanoate] | 60.5 | 12.2 | 27.3 |  |
|  |  |  |  |  | > 100 | > 100 | > 100 |  |  | > 100 | > 100 | > 100 | 59 to 60 | CCCCCCCCCCCC(=O)OCCCn1cnc2c(Br)c(Br)c(Br)c(Br)c21 [Compound 3d, 3-(4,5,6,7-Tetrabromo-1H-benzimidazol-1-yl)propyl dodecanoate] |  |  |  | EC50 [5, 13]: > 100 µM; EC50 [6, 14]: > 100 µM |
|  |  |  |  |  | > 100 | > 100 | > 100 |  |  | > 100 | > 100 | > 100 | 69 to 70 | CCCCCCCCCCCC(=O)OCCCn1c(C)nc2c(Br)c(Br)c(Br)c(Br)c21 [Compound 6d, (4,5,6,7-Tetrabromo-2-methyl-1H-benzimidazol-1-yl)propyl dodecanoate] |  |  |  | EC50 [5, 13]: > 100 µM; EC50 [6, 14]: > 100 µM |

Reference: paper PMC8230474, “Synthesis of Novel Acyl Derivatives of 3-(4,5,6,7-Tetrabromo-1H-benzimidazol-1-yl)propan-1-ols—Intracellular TBBi-Based CK2 Inhibitors with Proapoptotic Properties” (International Journal of Molecular Sciences, 2021)
